From ChEMBL document CHEMBL1137123, “Himbacine analogs as muscarinic receptor antagonists--effects of tether and heterocyclic variations” (Bioorg Med Chem Lett, 2004)

Tests used:
[1] = biological target: T1, Muscarinic acetylcholine receptor M1 (Homo sapiens, UniProt P11229); test: In vitro inhibitory activity against cloned human M1 muscarinic receptor
T1 sequence (P11229 whole entry): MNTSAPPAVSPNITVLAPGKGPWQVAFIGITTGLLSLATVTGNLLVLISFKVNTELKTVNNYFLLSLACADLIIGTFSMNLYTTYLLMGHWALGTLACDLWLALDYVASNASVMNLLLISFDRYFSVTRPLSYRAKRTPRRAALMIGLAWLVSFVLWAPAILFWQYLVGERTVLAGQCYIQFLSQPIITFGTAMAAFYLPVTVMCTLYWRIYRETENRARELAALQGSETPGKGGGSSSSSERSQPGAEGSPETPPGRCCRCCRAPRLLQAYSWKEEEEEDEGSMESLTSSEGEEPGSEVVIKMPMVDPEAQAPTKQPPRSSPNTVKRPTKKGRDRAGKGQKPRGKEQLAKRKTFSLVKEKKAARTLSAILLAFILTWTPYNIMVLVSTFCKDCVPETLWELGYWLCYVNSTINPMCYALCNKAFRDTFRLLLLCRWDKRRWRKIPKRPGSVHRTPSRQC

[2] = biological target: T2, Muscarinic acetylcholine receptor M2 (Homo sapiens, UniProt P08172); test: In vitro inhibitory activity against cloned human M2 muscarinic receptor
T2 sequence (P08172 whole entry): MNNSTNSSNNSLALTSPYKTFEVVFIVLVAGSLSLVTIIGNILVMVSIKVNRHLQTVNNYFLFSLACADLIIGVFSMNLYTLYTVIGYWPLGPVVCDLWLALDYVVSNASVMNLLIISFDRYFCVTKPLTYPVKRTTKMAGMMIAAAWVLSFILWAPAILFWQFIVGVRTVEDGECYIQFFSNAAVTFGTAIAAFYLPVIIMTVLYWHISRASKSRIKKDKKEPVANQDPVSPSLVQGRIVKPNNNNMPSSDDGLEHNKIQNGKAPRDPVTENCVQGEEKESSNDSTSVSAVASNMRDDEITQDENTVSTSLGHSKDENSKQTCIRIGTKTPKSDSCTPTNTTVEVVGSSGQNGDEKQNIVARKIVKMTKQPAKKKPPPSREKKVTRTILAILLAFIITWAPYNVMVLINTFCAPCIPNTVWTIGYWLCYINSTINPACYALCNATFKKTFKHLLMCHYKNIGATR

| SMILES | Ki [1] [nM] | Ki [2] [nM] |
| --- | --- | --- |
| C[C@@H]1OC(=O)[C@H]2C[C@H]3CCCC[C@@H]3[C@@H](/C=C/[C@@H]3CCC[C@H](C)N3)[C@@H]12 | > 1400 | > 1400 |
| C[C@@H]1OC(=O)[C@H]2C=C3CCCC[C@@H]3[C@@H]([C@@H]3CC4CCC(C)(C)[N+]4(C)O3)[C@@H]12 (some centres not stated) | 790 | 180 |
| C[C@@H]1OC(=O)[C@H]2C=C3CCCC[C@@H]3/C(=C/CC3CCC(C)(C)[N+]3(C)C)[C@@H]12 (some centres not stated) | 446 | 571 |
| C[C@@H]1OC(=O)[C@H]2C[C@H]3CCCC[C@@H]3/C(=C/C[C@H]3CCC[C@H](C)N3C)[C@@H]12 | 65.9 | 13.3 |
| CCN1C(C/C=C2\[C@H]3[C@H](C)OC(=O)[C@H]3C=C3CCCC[C@@H]32)CCC1(C)C (some centres not stated) | 640 | > 1400 |
| C[C@@H]1OC(=O)[C@H]2C[C@H]3CCCC[C@@H]3[C@@H](CC[C@H]3CCC[C@H](C)N3)[C@@H]12 | 68 | 16 |
| C[C@@H]1OC(=O)[C@H]2C[C@H]3CCCC[C@@H]3/C(=C/CC3CCC(C)(C)N3C)[C@@H]12 (some centres not stated) | 418 | 43 |
| C[C@@H]1OC(=O)[C@H]2C[C@H]3CCCC[C@@H]3[C@@H](/C=C/[C@@H]3CCC[C@H](C)N3C)[C@@H]12 | > 1400 | > 1400 |
| C[C@@H]1OC(=O)[C@H]2C=C3CCCC[C@@H]3/C(=C/CC3CCC(C)(C)N3C)[C@@H]12 (some centres not stated) | 177 | 68 |
| C[C@@H]1OC(=O)[C@H]2C[C@H]3CCCC[C@@H]3C(CCC3CCC(C)(C)N3C)[C@@H]12 (some centres not stated) | 122 | 12.2 |
| C[C@@H]1OC(=O)[C@H]2C=C3CCCC[C@@H]3[C@@H]([C@@H]3CC4CCC(C)(C)N4O3)[C@@H]12 (some centres not stated) | > 1400 | > 1400 |
| C[C@@H]1OC(=O)[C@H]2C[C@H]3CCCC[C@@H]3[C@@H](/C=C/[C@H]3CCC[C@H](C)N3C)[C@@H]12 [HIMBACINE] | 48 | 4.5 |
| C[C@@H]1OC(=O)[C@H]2C[C@H]3CCCC[C@@H]3[C@@H]([C@@H](O)C[C@H]3CCC(C)(C)N3C)[C@@H]12 | > 1400 | > 1400 |
| C[C@@H]1OC(=O)[C@H]2C[C@H]3CCCC[C@@H]3[C@@H](/C(O)=C/[C@H]3CCC[C@H](C)N3C)[C@@H]12 | 1570 | 203 |
| C[C@@H]1OC(=O)[C@H]2C[C@H]3CCCC[C@@H]3[C@@H](CC[C@H]3CCC[C@H](C)N3C)[C@@H]12 | 32 | 4.3 |
| CCN1C(CCC2[C@H]3[C@H](C)OC(=O)[C@H]3C[C@H]3CCCC[C@H]23)CCC1(C)C (some centres not stated) | 811 | 449 |
